Earlier results in patent US5627202A, “Inhibitors of farnesyl-protein transferase” (Merck & Co., Inc., priority 1996, dated 1997).

Tested on: farnesyl-protein transferase
Conditions: via HMG-CoA reductase inhibition

Structure (SMILES) | Indirect inhibition of farnesyl-protein transferase in vivo
CC[C@H](C)C(=O)O[C@H]1C[C@@H](C)C=C2C=C[C@H](C)[C@H](CC[C@@H]3C[C@@H](O)CC(=O)O3)[C@H]21 [lovastatin] | Indirect inhibition of farnesyl-protein transferase in vivo
CC[C@H](C)C(=O)O[C@H]1CCC=C2C=C[C@H](C)[C@H](CC[C@@H]3C[C@@H](O)CC(=O)O3)[C@H]21 [compactin] | Indirect inhibition of farnesyl-protein transferase in vivo
